# Publication PMC2697495 (The Journal of pharmacy and pharmacology, 2008)
# Marks after values point to notes of the source that are not given here.
# What was measured:
# [1] = tested on: endogenous β-glucuronidase, HEK293 vector control; assay: Estradiol glucuronide hydrolysis by HEK293 vector control cell microsomes; assay type: in vitro ADME, human; settings: HEK293 control 0.25 mg/ml; without saccharolactone; E-3-G 100 μM, E-17-G 200 μM; n=3
# [2] = tested on: human intestinal microsomes; assay: Estradiol glucuronide formation in 6 hours by human intestinal microsomes; assay type: in vitro ADME; settings: for Apparent nmoles formed in 6 hours: intestinal microsomes 0.5 mg protein/ml, β-estradiol 100 μM and UDPGA, mean of triplicate; for Predicted actual nmoles formed in 6 hours: intestinal microsomes, apparent formed plus degraded
# human kidney microsomes = assay: Estradiol glucuronide formation in 6 hours by human kidney microsomes; assay type: in vitro ADME; settings: for Apparent nmoles formed in 6 hours: kidney microsomes 0.5 mg protein/ml, β-estradiol 100 μM and UDPGA, mean of triplicate; for Predicted actual nmoles formed in 6 hours: kidney microsomes, apparent formed plus degraded
# [3] = tested on: pooled human liver microsomes (pHLMs); settings: pHLMs 0.5 mg protein/ml; β-estradiol 100 μM and UDPGA; mean of triplicate
# [4] = biological target: endogenous β-glucuronidase, human lung microsomes (Homo sapiens, UniProt P08236); assay: Estradiol glucuronide hydrolysis by human lung microsomes; settings: lung microsomes 0.5 mg/ml; without saccharolactone; E-3-G 100 μM, E-17-G 200 μM; n=3
# [5] = tested on: endogenous β-glucuronidase, human kidney microsomes; assay: Estradiol glucuronide hydrolysis by human kidney microsomes; settings: for Nmoles degraded as a % of nmoles formed: kidney microsomes; for Nmoles degraded in 6 hours: kidney microsomes 0.5 mg protein/ml, estradiol glucuronide without UDPGA; for percent glucuronide remaining after 6 hours: kidney microsomes 0.5 mg/ml, without saccharolactone, E-3-G 100 μM, E-17-G 200 μM, n=3
# [6] = tested on: endogenous β-glucuronidase, human intestinal microsomes; assay: Estradiol glucuronide hydrolysis by human intestinal microsomes; settings: for Nmoles degraded as a % of nmoles formed: intestinal microsomes; for Nmoles degraded in 6 hours: intestinal microsomes 0.5 mg protein/ml, estradiol glucuronide without UDPGA; for percent glucuronide remaining after 6 hours: intestine microsomes 0.5 mg/ml, without saccharolactone, E-3-G 100 μM, E-17-G 200 μM, n=3
# [7] = Estradiol glucuronide stability in phosphate buffer; settings: 50 mM phosphate buffer pH 7.5, 37 °C, no enzyme; without saccharolactone; E-3-G 100 μM, E-17-G 200 μM; n=3
# [8] = biological target: T1, endogenous β-glucuronidase, pooled human liver microsomes (Homo sapiens, UniProt P08236); assay: Estradiol glucuronide hydrolysis; settings: for percent glucuronide remaining after 6 hours: pHLM 0.5 mg/ml, E-3-G 100 μM, E-17-G 200 μM, n=3; for Nmoles degraded as a % of nmoles formed: pHLMs; for Nmoles degraded in 6 hours: pHLMs 0.5 mg protein/ml, estradiol glucuronide without UDPGA
# T1 sequence (P08236 23-651): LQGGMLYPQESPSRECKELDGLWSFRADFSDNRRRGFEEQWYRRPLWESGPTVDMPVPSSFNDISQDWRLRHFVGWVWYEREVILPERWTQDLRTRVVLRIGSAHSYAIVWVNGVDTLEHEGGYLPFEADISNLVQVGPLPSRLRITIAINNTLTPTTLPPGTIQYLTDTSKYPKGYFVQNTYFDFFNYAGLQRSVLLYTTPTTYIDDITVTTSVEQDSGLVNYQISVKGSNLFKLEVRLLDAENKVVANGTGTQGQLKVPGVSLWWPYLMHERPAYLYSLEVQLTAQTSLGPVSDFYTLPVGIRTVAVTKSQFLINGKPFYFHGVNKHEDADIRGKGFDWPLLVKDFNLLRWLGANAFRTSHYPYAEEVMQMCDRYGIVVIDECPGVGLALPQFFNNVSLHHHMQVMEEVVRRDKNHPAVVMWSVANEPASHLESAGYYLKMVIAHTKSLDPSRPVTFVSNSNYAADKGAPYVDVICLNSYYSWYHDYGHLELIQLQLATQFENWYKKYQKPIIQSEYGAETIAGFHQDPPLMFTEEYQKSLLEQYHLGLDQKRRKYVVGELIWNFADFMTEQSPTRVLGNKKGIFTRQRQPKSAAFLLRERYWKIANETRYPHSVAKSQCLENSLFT
# microsomes = settings: 50 μg alamethicin per mg microsomal protein, ref Fisher et al 2000; cited from earlier work
Compound,percent glucuronide remaining after 6 hours [1],Apparent nmoles formed in 6 hours [2],Predicted actual nmoles formed in 6 hours [2],Apparent nmoles formed in 6 hours (human kidney microsomes),Predicted actual nmoles formed in 6 hours (human kidney microsomes),Apparent nmoles formed in 6 hours [3],percent glucuronide remaining after 6 hours [4],Nmoles degraded as a % of nmoles formed [5],Nmoles degraded in 6 hours [5],percent glucuronide remaining after 6 hours [5],Nmoles degraded as a % of nmoles formed [6],Nmoles degraded in 6 hours [6],percent glucuronide remaining after 6 hours [6],percent glucuronide remaining after 6 hours [7],percent glucuronide remaining after 6 hours ([8]; with 10 mM saccharolactone),percent glucuronide remaining after 6 hours ([8]; without saccharolactone),Nmoles degraded in 6 hours [8],further results
"C[C@]12CC[C@@H]3c4ccc(O[C@@H]5O[C@H](C(=O)O)[C@@H](O)[C@H](O)[C@H]5O)cc4CC[C@H]3[C@@H]1CC[C@@H]2O [E-3-G, estradiol 3-glucuronide]",102±4%,16.7 nmol,16.7 nmol,2.99 nmol,2.99 nmol,3.51 nmol,85±6%,0%,0 nmol,"104±1 ^a^, ^b %",0%,0 nmol,104±3%,101±5%,84±2 ^a %,"82±1 ^a^, ^b %",0.36 nmol,Nmoles degraded as a % of nmoles formed [8]: 9.30%
"C[C@]12CC[C@@H]3c4ccc(O)cc4CC[C@H]3[C@@H]1CC[C@@H]2O[C@@H]1O[C@H](C(=O)O)[C@@H](O)[C@H](O)[C@H]1O [E-17-G, estradiol 17-glucuronide]",104±3%,0.58 nmol,0.58 nmol,1.11 nmol,1.11 nmol,1.23 nmol,92±6%,0%,0 nmol,104±3%,0%,0 nmol,110±4 ^b %,102±13%,84±3%,86±2 ^b %,0.29 nmol,Nmoles degraded as a % of nmoles formed ([8]; listed as Estradiol-17-Glucuronide): 19%; Nmoles degraded as a % of nmoles formed ([8]; listed as estradiol-17 glucuronide): 19%
alamethicin,–,–,–,–,–,–,–,–,–,–,–,–,–,–,–,–,–,conjugation rate relative to that in absence of alamethicin (microsomes): 2 to 3 times
